Laboratory results from PubChem BioAssay (NCI).
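These data come from cells grown in 96-well plates and exposed to compound for 48 hours at five concentrations. GI50 is the concentration that inhibits growth by half. TGI: total growth inhibition.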

Tests used:
Experiment in all cases: DTP human tumour cell line panel, 48 h
[1] = tested on: A498 renal
[2] = tested on: A549 NSCLC
[3] = tested on: ACHN renal
[4] = tested on: BT-549 breast
[5] = tested on: CAKI-1 renal
[6] = tested on: COLO 205 colon
[7] = tested on: DU-145 prostate
[8] = tested on: EKVX NSCLC
[9] = tested on: HCC-2998 colon
[10] = tested on: HCT-116 colon
[11] = tested on: HCT-15 colon
[12] = tested on: HL-60(TB) leukemia
[13] = tested on: HOP-62 NSCLC
[14] = tested on: HOP-92 NSCLC
[15] = tested on: HS 578T breast
[16] = tested on: HT29 colon
[17] = tested on: IGROV1 ovarian
[18] = tested on: K-562 leukemia
[19] = tested on: KM12 colon
[20] = tested on: LOX IMVI melanoma
[21] = tested on: M14 melanoma
[22] = tested on: MALME-3M melanoma
[23] = tested on: MCF7 breast
[24] = tested on: MDA-MB-231 breast
[25] = tested on: MDA-MB-435
[26] = tested on: MOLT-4 leukemia
[27] = tested on: NCI-H226 lung
[28] = tested on: NCI-H23 lung
[29] = tested on: NCI-H460 lung
[30] = tested on: NCI-H522 lung
[31] = tested on: NCI/ADR-RES ovarian
[32] = tested on: OVCAR-3 ovarian
[33] = tested on: OVCAR-4 ovarian
[34] = tested on: OVCAR-5 ovarian
[35] = tested on: OVCAR-8 ovarian
[36] = tested on: PC-3 prostate
[37] = tested on: RPMI-8226 leukemia
[38] = tested on: RXF 393 renal
[39] = tested on: SF-268 CNS
[40] = tested on: SF-295 CNS
[41] = tested on: SF-539 CNS
[42] = tested on: SK-MEL-2 melanoma
[43] = tested on: SK-MEL-28 melanoma
[44] = tested on: SK-MEL-5 melanoma
[45] = tested on: SK-OV-3 ovarian
[46] = tested on: SN12C renal
[47] = tested on: SNB-75 CNS
[48] = tested on: SR leukemia
[49] = tested on: SW-620 colon
[50] = tested on: T-47D breast
[51] = tested on: TK-10 renal
[52] = tested on: U251 CNS
[53] = tested on: UACC-257 melanoma
[54] = tested on: UACC-62 melanoma
[55] = tested on: UO-31 renal

In the case of `COc1ccc(S(=O)(=O)Nc2cc(Sc3cccc4cccnc34)c(O)c3ccccc23)cc1`, the GI50 [1] is reported as 2270 nM, the TGI [1] is reported as 16500 nM and the GI50 [2] is reported as 587 nM. The TGI [2] was 12800 nM, the GI50 [3] was 731 nM and the TGI [3] was 10000 nM. The GI50 [4] was 2650 nM, the TGI [4] was 16900 nM and the GI50 [5] was 2530 nM. It also gave a TGI [5] of 10500 nM, a GI50 [6] of 1660 nM and a TGI [6] of 4120 nM. For the same molecule, the GI50 [7] was 738 nM, the TGI [7] was 2650 nM and the GI50 [8] was 1440 nM. For the same molecule, the TGI [8] was 10900 nM, the GI50 [9] was 6700 nM and the TGI [9] was 21300 nM. It also gave a GI50 [10] of 505 nM, a TGI [10] of 2350 nM and a GI50 [11] of 477 nM. The TGI [11] was 8230 nM, the GI50 [12] was 1180 nM and the TGI [12] was 4940 nM. For the same molecule, the GI50 [13] was 1710 nM, the TGI [13] was 21700 nM and the GI50 [14] was 1550 nM. The TGI [14] was 5930 nM, the GI50 [15] was 3090 nM and the TGI [15] was 28900 nM. The GI50 [16] was 823 nM, the TGI [16] was 10400 nM and the GI50 [17] was 1090 nM. The TGI [17] was 7200 nM, the GI50 [18] was 926 nM and the TGI [18] was 11200 nM. The GI50 [19] was 1640 nM, the TGI [19] was 15000 nM and the GI50 [20] was 372 nM. It also gave a GI50 [21] of 1300 nM, a TGI [21] of 12100 nM and a GI50 [22] of 2880 nM. It also gave a TGI [22] of 11500 nM, a GI50 [23] of 420 nM and a TGI [23] of 2770 nM. The GI50 [24] was 992 nM, the TGI [24] was 12500 nM and the GI50 [25] was 2200 nM. It also gave a TGI [25] of 13200 nM, a GI50 [26] of 563 nM and a TGI [26] of 8080 nM. It also gave a GI50 [27] of 2280 nM, a TGI [27] of 19900 nM and a GI50 [28] of 1460 nM. The TGI [28] was 10800 nM, the GI50 [29] was 466 nM and the TGI [29] was 10500 nM. It also gave a GI50 [30] of 1360 nM, a TGI [30] of 3740 nM and a GI50 [31] of 707 nM. It also gave a TGI [31] of 12200 nM, a GI50 [32] of 695 nM and a TGI [32] of 3810 nM. For the same molecule, the GI50 [33] was 609 nM, the TGI [33] was 1930 nM and the GI50 [34] was 2830 nM. It also gave a TGI [34] of 12700 nM, a GI50 [35] of 595 nM and a TGI [35] of 18800 nM. It also gave a GI50 [36] of 512 nM, a TGI [36] of 10600 nM and a GI50 [37] of 2470 nM. It also gave a TGI [37] of 8920 nM, a GI50 [38] of 1240 nM and a TGI [38] of 6330 nM. It also gave a GI50 [39] of 1550 nM, a TGI [39] of 9810 nM and a GI50 [40] of 2230 nM. It also gave a TGI [40] of 13300 nM, a GI50 [41] of 1490 nM and a TGI [41] of 6520 nM. The GI50 [42] was 1370 nM, the TGI [42] was 6260 nM and the GI50 [43] was 2550 nM. The TGI [43] was 13200 nM, the GI50 [44] was 1330 nM and the TGI [44] was 2850 nM. It also gave a GI50 [45] of 3590 nM, a TGI [45] of 14400 nM and a GI50 [46] of 1060 nM. It also gave a TGI [46] of 4990 nM, a GI50 [47] of 3410 nM and a TGI [47] of 13500 nM. For the same molecule, the GI50 [48] was 358 nM, the TGI [48] was over 100000 nM and the GI50 [49] was 815 nM. For the same molecule, the TGI [49] was 3620 nM, the GI50 [50] was 1730 nM and the TGI [50] was 5640 nM. It also gave a GI50 [51] of 2820 nM, a TGI [51] of 13700 nM and a GI50 [52] of 579 nM. It also gave a TGI [52] of 11900 nM, a GI50 [53] of 1850 nM and a TGI [53] of 6040 nM. It also gave a GI50 [54] of 2040 nM, a TGI [54] of 6830 nM and a GI50 [55] of 926 nM. The TGI [55] was 8610 nM.
